Results reported in PMC4971072, “Chemically Homogenous Compounds with Antagonistic Properties at All α1-Adrenoceptor Subtypes but not β1-Adrenoceptor Attenuate Adrenaline-Induced Arrhythmia in Rats” (Frontiers in Pharmacology, 2016).
Where a name gives a salt, the structure may show the parent alone. Marks after values point to notes of the source that are not given here.

How the values were obtained:
normal ECG in rats = test: The effect on normal electrocardiogram in rats; assay type: in vivo, rat; conditions: anesthetized rats
Experimental: The experiment was carried out to exclude the influence of tested compounds on normal ECG. […] The influence on QRS complex, PQ interval, heart rate (RR), and QTc interval was determined.

α1D-adrenoreceptors = target: T1, α1D-adrenoreceptors (Rattus norvegicus, UniProt P23944); test: Functional bioassay, isolated rat aorta, noradrenaline contraction; assay type: biochemical; design: had aorta removed, denuded of endothelium and incubated in the Krebs-Henseleit solution; from tissue; host or cells: isolated rat aorta rings; conditions: noradrenaline as agonist
T1 sequence (P23944 1-561): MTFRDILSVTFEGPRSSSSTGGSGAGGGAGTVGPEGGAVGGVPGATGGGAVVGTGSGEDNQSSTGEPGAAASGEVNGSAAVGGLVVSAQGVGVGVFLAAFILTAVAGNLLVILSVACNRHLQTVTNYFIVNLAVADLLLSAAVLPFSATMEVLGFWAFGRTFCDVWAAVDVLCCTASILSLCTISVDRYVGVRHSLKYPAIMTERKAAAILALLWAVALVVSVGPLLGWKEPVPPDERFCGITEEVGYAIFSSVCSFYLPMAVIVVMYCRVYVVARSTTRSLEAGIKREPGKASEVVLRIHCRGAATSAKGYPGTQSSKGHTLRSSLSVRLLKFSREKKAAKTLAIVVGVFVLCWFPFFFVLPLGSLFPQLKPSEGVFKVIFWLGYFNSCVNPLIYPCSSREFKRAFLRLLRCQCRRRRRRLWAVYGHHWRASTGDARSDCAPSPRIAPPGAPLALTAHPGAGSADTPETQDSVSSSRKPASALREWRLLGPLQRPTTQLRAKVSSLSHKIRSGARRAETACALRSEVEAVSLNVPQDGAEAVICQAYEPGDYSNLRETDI
Experimental: Finally, the influence on α1D-adrenoreceptors was investigated using the isolated rat aorta. […] The aorta rings were maintained at optimal tension of 2.0 g. During 3 h of equilibration tissues were stimulated with noradrenaline three times (0.3 μM). Two cumulative concentration-response curves to noradrenaline, at an interval of 60 min, were established on each tissue both in the presence and absence of antagonist. The incubation with antagonists went on for 30 min. The experiments were carried out in the constant presence of yohimbine (0.1 μM) and propranolol (1 μM) to block α2- and β-adrenoceptors, respectively.
Data are means ± S.E.M. of at least 4 separate experiments. To establish Hill slopes for the agonist concentration–response curves and calculate EC50 values, curves were fitted to all the data by non-linear regression. The EC50 value in the presence and absence of antagonists was used to ascertain the concentration ratio (CR). Schild analysis was performed.

α1-adrenoceptor = α1-adrenoceptor radioligand binding assay ([3H]-prazosin, rat cerebral cortex); conditions: read-out: Adrenergic receptors Ki α1
Experimental: The α1- and β1-adrenoceptor radioligand binding assay was performed on rat cerebral cortex. […] The cell pellet was resuspended in the Tris–HCl buffer and centrifuged again. Radioligand binding assays were performed in plates (MultiScreen/Millipore). […] The incubation was terminated by rapid filtration through glass fiber filters (Whatman GF/C) using a vacuum manifold (Millipore). The filters were then washed twice with the assay buffer and placed in scintillation vials with a liquid scintillation cocktail. […] All the assays were made in duplicate and the inhibitory constants (Ki) were estimated.
LO–labeled ligand concentration, KD–dissociation constant of labeled ligand

[1] = tested on: adrenaline-induced arrhythmia in rats; test: Prophylactic antiarrhythmic activity in adrenaline-induced arrhythmia; assay type: in vivo, rat
Experimental: The studied compounds were administered i.p. 45 min before the injection of adrenaline, calcium chloride, or barium chloride. The electrocardiogram (ECG) was recorded during the first 2 min as well as in the 5th, 10th, and 15th min after the arrhythmogen injection. […]

[2] = tested on: blood pressure in normotensive rats; test: Influence on blood pressure in normotensive rats; assay type: in vivo, rat; design: Systolic pressure / Diastolic pressure: unit not given beside the values; conditions: for Diastolic pressure / Systolic pressure: anesthetized normotensive rats
Experimental: The tested compounds were administered i.p. after 15 min of stabilization period. The compounds were administered at the dose 10 mg/kg.

[3] = i.p. at ED84, 0 min (initial values)
[4] = dose 0.1 mg/kg i.p. 45 min before adrenaline 20 μg/kg i.v.
[5] = dose 0.2 mg/kg i.p. 45 min before adrenaline 20 μg/kg i.v.
[6] = dose 0.3 mg/kg i.p. 45 min before adrenaline 20 μg/kg i.v.
[7] = lowest hypotensive dose i.p., 5 min
[8] = lowest hypotensive dose i.p., 10 min
[9] = lowest hypotensive dose i.p., 20 min
[10] = lowest hypotensive dose i.p., 30 min
[11] = lowest hypotensive dose i.p., 40 min
[12] = lowest hypotensive dose i.p., 50 min
[13] = lowest hypotensive dose i.p., 60 min
[14] = lowest hypotensive dose i.p., Control (before administration)
[15] = normotensive rats, lowest hypotensive dose i.p., period of significant effect

For `COc1ccccc1N1CCN(CCCOc2c(C)cc(C)cc2C)CC1` [HBK-18, 1N-[3-(2,4,6-trimethylphenoxy)propyl]-4N-(2-methoxyphenyl)piperazine hydrochloride], the “influence on ECG parameters (PQ interval, QRS complex, QTc interval)” value (normal ECG in rats; i.p. at ED84) was “did not affect PQ interval, QRS complex or QTc interval”, the “reduction of heart rate” value (normal ECG in rats; i.p. at ED84, over the period of significant effect vs. initial values) was 13−23% and the “Beats/min (ECG)” value (normal ECG in rats; [3]) was 328.0 ± 7.4 Beats/min. The “PQ (ECG)” value (normal ECG in rats; [3]) was 61.3 ± 4.6 ms, the “QRS (ECG)” value (normal ECG in rats; [3]) was 28.1 ± 3.1 ms and the “QT (ECG)” value (normal ECG in rats; [3]) was 73.9 ± 6.2 ms. For the same compound, the “QTc (ECG, Bazett)” value (normal ECG in rats; [3]) was 172.4 ± 13.5 ms, the “Beats/min (ECG)” value (normal ECG in rats; i.p. at ED84, 5 min) was 306.9 ± 9.0 Beats/min and the “PQ (ECG)” value (normal ECG in rats; i.p. at ED84, 5 min) was 61.5 ± 6.3 ms. For the same compound, the “QRS (ECG)” value (normal ECG in rats; i.p. at ED84, 5 min) was 30.4 ± 3.2 ms, the “QT (ECG)” value (normal ECG in rats; i.p. at ED84, 5 min) was 77.0 ± 7.0 ms and the “QTc (ECG, Bazett)” value (normal ECG in rats; i.p. at ED84, 5 min) was 174.2 ± 16.3 ms. The “Beats/min (ECG)” value (normal ECG in rats; i.p. at ED84, 10 min) was 298.7 ± 8.9 Beats/min, the “PQ (ECG)” value (normal ECG in rats; i.p. at ED84, 10 min) was 57.4 ± 4.2 ms and the “QRS (ECG)” value (normal ECG in rats; i.p. at ED84, 10 min) was 30.8 ± 3.6 ms. For the same compound, the “QT (ECG)” value (normal ECG in rats; i.p. at ED84, 10 min) was 77.7 ± 4.9 ms, the “QTc (ECG, Bazett)” value (normal ECG in rats; i.p. at ED84, 10 min) was 173.4 ± 11.7 ms and the “Beats/min (ECG)” value (normal ECG in rats; i.p. at ED84, 15 min) was 284.7 ± 7.6^a Beats/min. The “PQ (ECG)” value (normal ECG in rats; i.p. at ED84, 15 min) was 55.8 ± 1.6 ms, the “QRS (ECG)” value (normal ECG in rats; i.p. at ED84, 15 min) was 27.0 ± 2.9 ms and the “QT (ECG)” value (normal ECG in rats; i.p. at ED84, 15 min) was 76.1 ± 5.8 ms. The “QTc (ECG, Bazett)” value (normal ECG in rats; i.p. at ED84, 15 min) was 166.4 ± 14.5 ms, the “Beats/min (ECG)” value (normal ECG in rats; i.p. at ED84, 20 min) was 273.9 ± 8.0^b Beats/min and the “PQ (ECG)” value (normal ECG in rats; i.p. at ED84, 20 min) was 51.9 ± 3.8 ms. The “QRS (ECG)” value (normal ECG in rats; i.p. at ED84, 20 min) was 29.1 ± 2.7 ms, the “QT (ECG)” value (normal ECG in rats; i.p. at ED84, 20 min) was 77.9 ± 4.2 ms and the “QTc (ECG, Bazett)” value (normal ECG in rats; i.p. at ED84, 20 min) was 166.9 ± 11.1 ms. The “Beats/min (ECG)” value (normal ECG in rats; i.p. at ED84, 30 min) was 267.4 ± 17.5^c Beats/min, the “PQ (ECG)” value (normal ECG in rats; i.p. at ED84, 30 min) was 56.9 ± 3.5 ms and the “QRS (ECG)” value (normal ECG in rats; i.p. at ED84, 30 min) was 28.5 ± 2.8 ms. For the same compound, the “QT (ECG)” value (normal ECG in rats; i.p. at ED84, 30 min) was 75.3 ± 3.2 ms, the “QTc (ECG, Bazett)” value (normal ECG in rats; i.p. at ED84, 30 min) was 159.0 ± 9.7 ms and the “Beats/min (ECG)” value (normal ECG in rats; i.p. at ED84, 40 min) was 260.3 ± 22.8^c Beats/min. For the same compound, the “PQ (ECG)” value (normal ECG in rats; i.p. at ED84, 40 min) was 57.4 ± 3.1 ms, the “QRS (ECG)” value (normal ECG in rats; i.p. at ED84, 40 min) was 28.6 ± 2.8 ms and the “QT (ECG)” value (normal ECG in rats; i.p. at ED84, 40 min) was 76.9 ± 4.9 ms. The “QTc (ECG, Bazett)” value (normal ECG in rats; i.p. at ED84, 40 min) was 160.4 ± 14.4 ms, the “Beats/min (ECG)” value (normal ECG in rats; i.p. at ED84, 50 min) was 258.9 ± 25.4^c Beats/min and the “PQ (ECG)” value (normal ECG in rats; i.p. at ED84, 50 min) was 59.0 ± 3.8 ms. The “QRS (ECG)” value (normal ECG in rats; i.p. at ED84, 50 min) was 27.6 ± 3.0 ms, the “QT (ECG)” value (normal ECG in rats; i.p. at ED84, 50 min) was 76.0 ± 2.9 ms and the “QTc (ECG, Bazett)” value (normal ECG in rats; i.p. at ED84, 50 min) was 157.2 ± 9.9 ms. For the same compound, the “Beats/min (ECG)” value (normal ECG in rats; i.p. at ED84, 60 min) was 252.3 ± 25.1^c Beats/min, the “PQ (ECG)” value (normal ECG in rats; i.p. at ED84, 60 min) was 59.6 ± 4.7 ms and the “QRS (ECG)” value (normal ECG in rats; i.p. at ED84, 60 min) was 30.9 ± 3.8 ms. For the same compound, the “QT (ECG)” value (normal ECG in rats; i.p. at ED84, 60 min) was 76.7 ± 3.5 ms, the “QTc (ECG, Bazett)” value (normal ECG in rats; i.p. at ED84, 60 min) was 157.1 ± 12.0 ms and the “Schild slope ± S.E.M., α1D” value (α1D-adrenoreceptors) was 1.01 ± 0.05. For the same compound, the Kb (α1D-adrenoreceptors; read-out: pA2 ± S.E.M., α1D (converted)) was 1.2 nM, the Ki (α1-adrenoceptor) was 5.2 nM and the ED50 ([1]; Rattus norvegicus, read-out: ED50 (confidence limits)) was 0.18 mg/kg. The “Bigeminy (%)” value [1, 4] was 50.0%, the “Blocks (%)” value [1, 4] was 66.7% and the “Bradycardia (%)” value [1, 4] was 66.7%. The “Extrasystoles (%)” value [1, 4] was 83.3%, the “Bigeminy (%)” value [1, 5] was 16.7% and the “Blocks (%)” value [1, 5] was 33.0%. For the same compound, the “Bradycardia (%)” value [1, 5] was 50.0%, the “Extrasystoles (%)” value [1, 5] was 50.0% and the “Blocks (%)” value [1, 6] was 16.3%. The “Bradycardia (%)” value [1, 6] was 16.3%, the “Extrasystoles (%)” value [1, 6] was 16.7% and the Diastolic pressure [2, 7] was 90.7 ± 7.1. For the same compound, the Systolic pressure [2, 7] was 117.7 ± 9.1, the Diastolic pressure [2, 8] was 85.5 ± 7.5 and the Systolic pressure [2, 8] was 112.7 ± 7.7. The Diastolic pressure [2, 9] was 79.5 ± 7.8^a, the Systolic pressure [2, 9] was 96.5 ± 8.9^b and the Diastolic pressure [2, 10] was 78.3 ± 7.2^a. For the same compound, the Systolic pressure [2, 10] was 93.8 ± 8.7^c, the Diastolic pressure [2, 11] was 78.8 ± 7.0^b and the Systolic pressure [2, 11] was 91.8 ± 10.0^b. The Diastolic pressure [2, 12] was 78.7 ± 5.6^c, the Systolic pressure [2, 12] was 90.7 ± 8.6^b and the Diastolic pressure [2, 13] was 77.5 ± 6.0^b. The Systolic pressure [2, 13] was 90.2 ± 9.2^a, the Diastolic pressure [2, 14] was 94.3 ± 6.4 and the Systolic pressure [2, 14] was 125.7 ± 8.2. For the same compound, the lowest hypotensive dose ([2]; normotensive rats, lowest dose significantly lowering systolic and diastolic blood pressure) was 0.01 mg/kg, the “reduction of diastolic blood pressure” value [2, 15] was 16−18% and the “reduction of systolic blood pressure” value [2, 15] was 23−28%.
